Measurements as given in patent US9463188B2, “Osteopontin production inhibitor containing dictyopyrone derivative or dihydrodictyopyrone derivative as active ingredient” (TOHOKU UNIVERSITY, priority 2013, dated 2016).

Tested on: human non-small cell lung cancer-derived cell line A549
Assay: Wound-Healing assay
Type: cell-based
Details: A549 cells, 2 days after injury
From the text: In the next stage, a determination was made as to whether or not the physiological function of cells induced by OPN production was suppressed by the compound 3 as a test compound. The determination was made by performing cell Wound-Healing assay. This assay is commonly known as a method for evaluating cell migration capacity. When a wound is made in a cell monolayer by scratching some cells with a pipette tip or the like, the wound is closed by migration of cells around the wound. The influence of a test compound on such function was observed by adding the test compound to a cell culture liquid. […]
Based on the taken images, the areas of the wounds were determined using Image-Pro Plus 7.0J (MediaCybernetics). Then, a wound healing rate (%) was calculated based on the following calculation formula: Wound healing rate (%)=100−[area of wound after 2 days from injury/area of wound just after injury]×100. The average wound-healing rates (%) of the control group and the two compound 3-treated groups at different concentrations were calculated. Further, the percentage of the wound-healing rate of the compound-treated group with respect to the wound-healing rate of the control group was also calculated.
The statistical processing of calculated values of the wound-healing rate was performed using Excel statistics, Statcel 3. […]

## CCCCCCCCCCCC(=O)[C@H]1C(=O)O[C@@H](C)C[C@@H]1C [Chemical formula 3]
12.5 μmol/L
  wound-healing rate vs control group: no difference
25 μmol/L, significance level less than 1%
  wound-healing rate vs control group: significantly suppressed
